Source: patent publication EP4570805A1, “TRICYCLIC COMPOUNDS AND MEDICAL USE THEREOF” (Chia Tai Tianqing Pharmaceutical Group Co., Ltd., priority 2022, dated 2024)
Where two headings read alike, the source gives them in different places.

Tests used:
His-KRAS G12D (1-169) = target: T1, His-KRAS G12D (1-169) (Homo sapiens, UniProt P01116, G12D); assay: Nucleotide exchange assay (SOS1cat-mediated, HTRF); assay type: biochemical; details: room temperature, read-out: Nucleotide exchange inhibitory activity IC50
T1 construct: His-KRAS G12D (1-169)
T1 sequence (P01116 1-169 isoform P01116-2 G12D): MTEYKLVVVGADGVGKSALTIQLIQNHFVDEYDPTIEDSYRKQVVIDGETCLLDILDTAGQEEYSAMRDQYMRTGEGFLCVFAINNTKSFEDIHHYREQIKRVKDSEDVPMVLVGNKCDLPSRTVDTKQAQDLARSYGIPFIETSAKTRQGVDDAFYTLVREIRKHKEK
Procedure: • 1. Reagents: His-KRAS G12D (1-169); SOS1^cat (564-1049); GDP (purchased from Sigma); Anti-6HIS-Cryptate (purchased from Cisbio); EDA-GTP-DY-647P1 (purchased from Jena Bioscience) • 2. Buffer preparation: • 1) assay buffer: HEPES pH 7.4, NaCl, MgCl2, DTT, BSA, and Igepal; • 2) KRAS G12D working solution: A KRAS G12D working solution containing 100 nM His-KRAS G12D and 2 nM Anti-6HIS-Cryptate was prepared using the assay buffer; • 3) SOS1^cat working solution: An SOS1^cat working solution containing 20 nM SOS1^cat and 200 nM EDA-GTP-DY-647P1 was prepared using the assay buffer; • 4) blank control working solution: A blank control solution containing 2 nM Anti-6HIS-Cryptate was prepared using the assay buffer. • 3. Testing procedure: The entire experimental process was completed at room temperature. Using a black clear-bottom 384-well plate, 5 µL of KRAS G12D working solution was added to each well for the experimental and negative groups, while 5 µL of blank control working solution was added to each well for the blank group. The plate was incubated at room temperature for 10 min. Then, the compounds (at an initial concentration of 100 µM, 8 concentration gradients by 1:2 serial dilution) were added to the experimental groups using an ultra microsyringe and incubated at room temperature for 30 min. Finally, 5 µL of SOS1^cat working solution was added to each well, and after incubation at room temperature for 15 min, signal values were detected at 665 nm/620 nm using a PerkinElmer Envision HTS multi-label plate reader. The inhibition rate was calculated by the following formula: inhibition rate (%) = (mean value of negative control group - mean value of experimental group)/(mean value of negative control group - mean value of blank group) × 100%. The curves were fitted using the four-parameter logistic model with the logarithm of the compound concentration as the abscissa and the inhibition rate as the ordinate, and IC 50 values were calculated.

Capan-1 cells = assay: Inhibitory activity for Capan-1 cell proliferation (CCK-8); assay type: cell-based; details: Homo sapiens, CAPAN-1, 120 h, 5 days incubation
Procedure: Capan-1 cells in a well-growing state were collected into a centrifuge tube, adjusted to a cell density of 1.5 × 10^4 cells/mL, and inoculated onto a 96-well plate (100 µL/well). […] Meanwhile, a control was set. After 5 days of incubation in the cell incubator, the assay reagent CCK-8 (manufacturer: Dojindo Laboratories, Beijing; 10 µL/well) was added. After 4 h of incubation in the cell incubator, the absorbance was measured at 450 nm on a PerkinElmer Envision microplate reader. A four-parameter analysis was performed, a dose-response curve was fitted, and IC50 was calculated.

[1] = In vitro liver microsomal stability, mouse; details: mouse liver microsome 0.5 mg/mL, 37 °C
Procedure: (§1) Liver microsome incubation samples (species: human, monkey, rat, and mouse) were prepared by mixing a PBS buffer (pH 7.4), a liver microsome solution (0.5 mg/mL), a test compound, and an NADPH + MgCl2 solution and incubated at 37 °C and 300 rpm for 1 h. Zero-hour samples were prepared by mixing a PBS buffer (pH 7.4), a liver microsome solution (0.5 mg/mL), and a test compound. An acetonitrile solution containing an internal standard was added to the samples, and the supernatants were prepared by protein precipitation, diluted, and then assayed by LC/MS/MS.

AsPc-1 cells = assay: Inhibitory activity for AsPc-1 cell proliferation (CCK-8); assay type: cell-based, human; details: Homo sapiens, ASPC1, 72 h incubation
Procedure: AsPc-1 cells in a well-growing state were collected into a centrifuge tube, adjusted to a cell density of 3 × 10^4 cells/mL, and inoculated onto a 96-well plate (100 µL/well). The compounds were added using a nanoliter pipettor such that the final concentrations of the compounds were 5000 nM-0.31 nM (the addition was performed in duplicate). Meanwhile, a control was set. After 72 h of incubation in the cell incubator, the assay reagent CCK-8 (manufacturer: Dojindo Laboratories; 10 µL/well) was added. After 3 h of incubation in the cell incubator, the absorbance was measured at 450 nm on a PerkinElmer Envision microplate reader. A four-parameter analysis was performed, a dose-response curve was fitted, and IC50 was calculated.

[2] = In vivo pharmacokinetics in mice; details: mouse, in vivo, po, ICR mice, IG, 10 mg/kg; for MRT last: read-out: MRT(0-t)
Procedure: ICR mice weighing 20 g to 24 g were randomized into groups with 9 mice in each group after 3 to 5 days of acclimatization, and intragastric administration of the experimental compounds was performed at a dose of 10 mg/kg.
The test animals (ICR mice) were fasted for 12 h before administration and fed 4 h after administration, and were given free access to water before, after, and during the experiment.
After intragastric administration, about 0.1 mL of blood was collected via the orbital sinus at 0.25 h (15 min), 0.5 h (30 min), 1 h, 2 h, 4 h, 6 h, 8 h, and 10 h (each mouse was subjected to blood collection at 3 to 4 time points, with 3 mice per time point). Following anticoagulation with EDTA-K2, the blood samples were transferred to a centrifuge within 30 min and then centrifuged at 4000 rpm for 10 min at 4 °C to separate the plasma. All the plasma samples were collected and immediately stored at -20 °C for testing.
20 µL of the plasma sample to be tested and the standard curve sample were pipetted, and 400 µL of acetonitrile solution containing an internal standard (20 ng/mL) was added. The mixture was shaken and mixed well for 10 min, and centrifuged at 13000 rpm for 10 min. 50 µL of the supernatant was taken and diluted with 100 µL of ultrapure water. After being mixed well, 0.5 µL of the resulting sample was subjected to LC/MS/MS, and a chromatogram was recorded.
Oral exposure of the compounds of the present disclosure was evaluated by in vivo pharmacokinetic experiments in mice.

[3] = microsomes, 1 h
Procedure: as §1

[4] = In vitro liver microsomal stability, human; assay type: in vitro ADME; details: human liver microsome 0.5 mg/mL, 37 °C
Source text: Table 2. Results for in vitro liver microsomal metabolic stability

Row | SMILES | IC50 (His-KRAS G12D (1-169)) [µM] | IC50 (Capan-1 cells) [µM] | other results
1 | C#Cc1c(F)ccc2cc(O)cc(-c3nc4c5c(nc(OCCN(C)C)nc5c3F)N(C(C)c3cccnc3N)[C@@H](C)CO4)c12 (single isomer, unassigned) [Example 95] | – | < 0.1 | The remaining amount % (T = 60 min) (0.5 mg/mL) Mouse liver microsome [1]: >60%
2 | C#Cc1c(F)ccc2cc(O)cc(-c3nc4c5c(nc(OC[C@@]67CCCN6C[C@H](F)C7)nc5c3F)NCCO4)c12 [Example 1] | ≤ 0.1 | – | –
3 | C#Cc1c(F)ccc2cc(O)cc(-c3nc4c5c(nc(OCC67CCCN6CC(F)C7)nc5c3F)N(C3CCC(N(C)C)C3)CCO4)c12 (stereo not shown) [Example 23] | 0.1 to 0.5 | – | –
4 | C#Cc1c(F)ccc2cccc(-c3nc4c5c(nc(OC[C@@H]6CCCN6C)nc5c3F)N(C(C)c3cccnc3N)[C@@H](C)CO4)c12 (single isomer, unassigned) [Example 87] | – | < 0.1 | AUC(0-inf) [2]: 309 ng·h/mL; AUC(0-t) [2]: 266 ng·h/mL; Cmax [2]: 49 ng/mL; Tmax [2]: 0.25 h; half-life [2]: 3.66 h; MRT last [2]: 4.93 h
5 | C#Cc1c(F)ccc2cc(O)cc(-c3nc4c5c(nc(OC[C@@H]6CCN(C)C6)nc5c3F)N(C(C)c3cccnc3N)[C@@H](C)CO4)c12 (single isomer, unassigned) [Example 101] | – | < 0.1 | The remaining amount % (T = 60 min) (0.5 mg/mL) Mouse liver microsome [1]: >60%
6 | C#Cc1c(F)ccc2cc(O)cc(-c3nc4c5c(nc(OCCN6CCC6)nc5c3F)N(C(C)c3cccnc3N)[C@@H](C)CO4)c12 (single isomer, unassigned) [Example 134] | – | < 0.1 | The remaining amount % (T = 60 min) (0.5 mg/mL) Mouse liver microsome [3]: >60%
7 | C#Cc1c(F)ccc2cc(O)cc(-c3nc4c5c(nc(OCC67CCCN6CC(F)C7)nc5c3F)N(C3CCC(N)C3)CCO4)c12 (stereo not shown) [Example 10] | 0.5 to 0.999 | – | –
8 | C#Cc1c(F)ccc2cc(O)cc(-c3nc4c5c(nc(OCCCN6CCNCC6)nc5c3F)N(C(C)c3cccnc3N)[C@@H](C)CO4)c12 (single isomer, unassigned) [Example 140] | – | < 0.1 | The remaining amount % (T = 60 min) (0.5 mg/mL) Mouse liver microsome [3]: >60%
9 | C#Cc1c(F)ccc2cc(O)cc(-c3nc4c5c(nc(OCC67CCCN6CC(F)C7)nc5c3F)N(C3CCC(O)C3)CCO4)c12 (stereo not shown) [Example 15] | ≤ 0.1 | – | –
10 | C#Cc1c(F)ccc2cc(O)cc(-c3nc4c5c(nc(O[C@H]6CCN(C)C6)nc5c3F)N(C(C)c3cccnc3N)[C@@H](C)CO4)c12 (single isomer, unassigned) [Example 103] | – | < 0.1 | The remaining amount % (T = 60 min) (0.5 mg/mL) Mouse liver microsome [1]: >60%
11 | C#Cc1c(F)ccc2cc(O)cc(-c3nc4c5c(nc(OC[C@@]67CCCN6C[C@H](F)C7)nc5c3F)N(C3CCCC3)CCO4)c12 [Example 7] | ≤ 0.1 | – | –
12 | C#Cc1c(F)ccc2cc(O)cc(-c3nc4c5c(nc(OC[C@@]67CCCN6C[C@H](F)C7)nc5c3F)N(C3CC(N)C3)CCO4)c12 (stereo partly shown) [Example 17] | ≤ 0.1 | – | –
13 | C#Cc1c(F)ccc2cc(O)cc(-c3nc4c5c(nc(OCCCN(C)C)nc5c3F)N(C(C)c3cccnc3N)[C@@H](C)CO4)c12 (single isomer, unassigned) [Example 79] | – | < 0.1 | The remaining amount % (T = 60 min) (0.5 mg/mL) Mouse liver microsome [1]: >60%
14 | C#Cc1c(F)ccc2cc(O)cc(-c3nc4c5c(nc(OC[C@H](C)N(C)C)nc5c3F)N(C(C)c3cccnc3N)[C@@H](C)CO4)c12 (single isomer, unassigned) [Example 111] | – | < 0.1 | The remaining amount % (T = 60 min) (0.5 mg/mL) Mouse liver microsome [3]: >60%
15 | Cc1c(F)cc2[nH]ncc2c1-c1nc2c3c(nc(OC[C@@]45CCCN4C[C@H](F)C5)nc3c1F)N(C(C)c1cccnc1N)[C@@H](C)CO2 (single isomer, unassigned) [Example 85] | – | < 0.1 | AUC(0-inf) [2]: 214 ng·h/mL; AUC(0-t) [2]: 197 ng·h/mL; Cmax [2]: 50.2 ng/mL; Tmax [2]: 0.25 h; half-life [2]: 2.77 h; MRT last [2]: 3.4 h
16 | C#Cc1c(F)ccc2cc(O)cc(-c3nc4c5c(nc(OC[C@@]67CCCN6C[C@H](F)C7)nc5c3F)N(C3CC(N(C)C)C3)CCO4)c12 (stereo partly shown) [Example 26] | 0.1 to 0.5 | – | –
17 | C#Cc1c(F)ccc2cc(O)cc(-c3nc4c5c(nc(OC[C@@]67CCCN6C[C@H](F)C7)nc5c3F)N([C@H]3C[C@@H]3N)CCO4)c12 [Example 16] | ≤ 0.1 | – | –
18 | C#Cc1c(F)ccc2cc(O)cc(-c3nc4c5c(nc(O[C@@H](C)[C@@H]6CCCN6C)nc5c3F)N(C(C)c3cccnc3N)[C@@H](C)CO4)c12 (single isomer, unassigned) [Example 107] | – | < 0.1 | The remaining amount % (T = 60 min) (0.5 mg/mL) Human liver microsome [4]: >40%
19 | C#Cc1c(F)ccc2cc(O)cc(-c3nc4c5c(nc(OCC67CCCN6CCC7)nc5c3F)N(C(C)c3cccnc3N)[C@@H](C)CO4)c12 (single isomer, unassigned) [Example 97] | – | < 0.1 | The remaining amount % (T = 60 min) (0.5 mg/mL) Human liver microsome [4]: >40%; IC50 (AsPc-1 cells): ≤ 0.1 µM

The next lines start with results.

Row | IC50 (His-KRAS G12D (1-169)) [µM] | SMILES | IC50 (Capan-1 cells) [µM] | other results
20 | ≤ 0.1 | C#Cc1c(F)ccc2cc(O)cc(-c3nc4c5c(nc(OCC67CCCN6CC(F)C7)nc5c3F)N(CCN(C)C)CCO4)c12 (stereo not shown) [Example 2] | – | –
21 | ≤ 0.1 | C#Cc1c(F)ccc2cc(O)cc(-c3nc4c5c(nc(OCC67CCCN6CC(F)C7)nc5c3F)N(C(C)C)CCO4)c12 (stereo not shown) [Example 4] | 0.1 to 0.5 | IC50 (AsPc-1 cells): 0.5 to 0.999 µM
22 | ≤ 0.1 | C#Cc1c(F)ccc2cc(O)cc(-c3nc4c5c(nc(OCC67CCCN6CC(F)C7)nc5c3F)N(CC3(N(C)C)CC3)CCO4)c12 (stereo not shown) [Example 22] | – | –
23 | ≤ 0.1 | C#Cc1c(F)ccc2cc(O)cc(-c3nc4c5c(nc(OCC67CCCN6CC(F)C7)nc5c3F)N(CC(C)N)CCO4)c12 (stereo not shown) [Example 14] | – | –
24 | ≤ 0.1 | C#Cc1c(F)ccc2cc(O)cc(-c3nc4c5c(nc(OC[C@@]67CCCN6C[C@H](F)C7)nc5c3F)N(C[C@H](C)N(C)C)CCO4)c12 [Example 25] | – | –
25 | ≤ 0.1 | C#Cc1c(F)ccc2cc(O)cc(-c3nc4c5c(nc(OC[C@@]67CCCN6C[C@H](F)C7)nc5c3F)N(CC3CC3)CCO4)c12 [Example 6] | – | –
26 | ≤ 0.1 | C#Cc1c(F)ccc2cc(O)cc(-c3nc4c5c(nc(OC[C@@]67CCCN6C[C@H](F)C7)nc5c3F)N(CC(F)(F)F)CCO4)c12 [Example 8] | 0.1 to 0.5 | IC50 (AsPc-1 cells): 0.5 to 0.999 µM
27 | ≤ 0.1 | C#Cc1c(F)ccc2cc(O)cc(-c3nc4c5c(nc(OCC67CCCN6CC(F)C7)nc5c3F)N(CC(C)N)CCO4)c12 (stereo not shown) [Example 13] | – | –
28 | ≤ 0.1 | C#Cc1c(F)ccc2cc(O)cc(-c3nc4c5c(nc(OC[C@@]67CCCN6C[C@H](F)C7)nc5c3F)N(C[C@@H](C)N(C)C)CCO4)c12 [Example 24] | – | –
29 | ≤ 0.1 | C#Cc1c(F)ccc2cc(O)cc(-c3nc4c5c(nc(OCC67CCCN6CC(F)C7)nc5c3F)N(C)CCO4)c12 (stereo not shown) [Example 9] | – | –
